We go through 13 compounds from publication PMC3961306, “Comparison of the Cancer Gene Targeting and Biochemical Selectivities of All Targeted Kinase Inhibitors Approved for Clinical Use” (PLoS ONE, 2014).

As a reminder, the IC50 is the concentration that gives 50% inhibition.

One assay deals with FKBP12. Conditions: value indicates binding interaction with FKBP12; read-out: IC50 (nM) on relevant targets: mTOR; cited from earlier work.
Assay [1] concerns the target T1, panel of more than 300 wild-type and mutant kinases (313 kinase panel) (Homo sapiens, UniProt P42679).
T1 sequence (P42679 1-507): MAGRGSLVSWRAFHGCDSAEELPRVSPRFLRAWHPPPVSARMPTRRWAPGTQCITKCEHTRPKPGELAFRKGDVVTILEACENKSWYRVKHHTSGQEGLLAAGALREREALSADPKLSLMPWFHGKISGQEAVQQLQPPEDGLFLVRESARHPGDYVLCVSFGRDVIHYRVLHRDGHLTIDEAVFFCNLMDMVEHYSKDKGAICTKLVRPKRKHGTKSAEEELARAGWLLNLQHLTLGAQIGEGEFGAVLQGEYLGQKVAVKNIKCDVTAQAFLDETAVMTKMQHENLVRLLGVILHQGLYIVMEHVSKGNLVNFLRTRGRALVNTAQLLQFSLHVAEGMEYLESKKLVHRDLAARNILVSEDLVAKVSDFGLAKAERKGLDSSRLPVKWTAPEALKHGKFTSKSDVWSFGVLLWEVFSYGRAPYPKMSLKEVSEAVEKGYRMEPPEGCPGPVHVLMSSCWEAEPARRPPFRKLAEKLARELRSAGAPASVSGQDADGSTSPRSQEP
The assay is described as follows: Kinase profiling in a biochemical assay panel (mobility shift assays and ELISA), %-inhibition at 1 μM; selectivity entropy. In general terms: ELISA stands for enzyme-linked immunosorbent assay.

In assay [2] the target is T2, panel of more than 300 wild-type and mutant kinases (313 kinase panel) (Homo sapiens, UniProt O00444).
T2 sequence (O00444 1-970): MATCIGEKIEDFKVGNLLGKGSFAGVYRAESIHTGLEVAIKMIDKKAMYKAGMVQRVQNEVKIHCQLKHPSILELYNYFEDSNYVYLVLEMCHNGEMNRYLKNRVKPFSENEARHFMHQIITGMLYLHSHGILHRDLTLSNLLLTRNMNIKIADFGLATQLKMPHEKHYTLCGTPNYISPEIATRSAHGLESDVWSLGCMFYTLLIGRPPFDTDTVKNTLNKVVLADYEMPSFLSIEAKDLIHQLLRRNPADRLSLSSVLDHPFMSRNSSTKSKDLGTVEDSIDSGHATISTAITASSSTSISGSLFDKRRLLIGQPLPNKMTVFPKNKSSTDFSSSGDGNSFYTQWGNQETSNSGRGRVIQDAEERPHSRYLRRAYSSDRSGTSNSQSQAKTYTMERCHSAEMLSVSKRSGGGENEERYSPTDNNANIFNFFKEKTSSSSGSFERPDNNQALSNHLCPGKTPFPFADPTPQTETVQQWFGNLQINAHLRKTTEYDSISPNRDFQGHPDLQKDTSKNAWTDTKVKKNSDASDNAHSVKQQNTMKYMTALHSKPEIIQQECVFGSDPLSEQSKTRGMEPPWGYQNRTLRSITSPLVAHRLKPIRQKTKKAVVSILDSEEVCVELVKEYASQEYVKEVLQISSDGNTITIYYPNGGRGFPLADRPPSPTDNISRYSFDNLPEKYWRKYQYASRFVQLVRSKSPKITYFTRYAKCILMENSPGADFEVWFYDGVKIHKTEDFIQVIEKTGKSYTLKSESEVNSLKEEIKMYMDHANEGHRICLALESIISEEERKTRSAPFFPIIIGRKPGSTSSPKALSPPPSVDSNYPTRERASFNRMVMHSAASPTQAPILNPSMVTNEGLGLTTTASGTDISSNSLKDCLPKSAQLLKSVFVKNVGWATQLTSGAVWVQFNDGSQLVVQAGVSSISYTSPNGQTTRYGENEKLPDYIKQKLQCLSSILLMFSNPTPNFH
Described as above.

The target of assay [3] is panel of more than 300 wild-type and mutant kinases (313 kinase panel) (Homo sapiens, UniProt P00519, T315I). Described as above.
Assay [4] relates to mutant versus wild-type cell lines of the 44 cell line panel. The assay is described as follows: Anova analysis of cell panel IC50s against cancer gene changes; standardized mean difference (targetedness). Conditions: BRAF oncogene targeting, Figure 5D.
The target in assay [5] is panel of more than 300 wild-type and mutant kinases (313 kinase panel) (Homo sapiens, UniProt O75914). Put plainly: Kinase profiling in a biochemical assay panel (mobility shift assays and ELISA), %-inhibition at 1 μM; selectivity entropy. Conditions: kinase PAK3; 1 μM.
Where [6] appears, read: kinase ABL(T315I), 1 μM compound.

Sequence of panel of more than 300 wild-type and mutant kinases (313 kinase panel) (Homo sapiens, UniProt O75914) (O75914 whole entry, stated change not applied): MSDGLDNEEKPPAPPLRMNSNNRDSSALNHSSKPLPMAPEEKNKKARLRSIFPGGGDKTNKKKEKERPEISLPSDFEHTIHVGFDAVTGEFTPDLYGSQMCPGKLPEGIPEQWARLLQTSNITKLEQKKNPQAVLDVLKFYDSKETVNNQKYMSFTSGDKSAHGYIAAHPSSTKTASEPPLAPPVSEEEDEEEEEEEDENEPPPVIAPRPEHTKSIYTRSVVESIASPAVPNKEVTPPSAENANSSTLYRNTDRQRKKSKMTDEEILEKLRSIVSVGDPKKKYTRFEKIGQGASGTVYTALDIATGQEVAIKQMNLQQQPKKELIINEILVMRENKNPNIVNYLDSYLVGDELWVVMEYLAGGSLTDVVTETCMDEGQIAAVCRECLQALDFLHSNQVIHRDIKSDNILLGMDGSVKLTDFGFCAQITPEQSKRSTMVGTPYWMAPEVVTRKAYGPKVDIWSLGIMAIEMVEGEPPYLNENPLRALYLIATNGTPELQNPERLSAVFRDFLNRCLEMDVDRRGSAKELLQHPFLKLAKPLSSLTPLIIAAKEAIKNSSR

Consider `CO[C@H]1C[C@@H]2CC[C@@H](C)[C@@](O)(O2)C(=O)C(=O)N2CCCC[C@H]2C(=O)O[C@H]([C@H](C)C[C@@H]2CC[C@@H](OCCO)[C@H](OC)C2)CC(=O)[C@H](C)/C=C(\C)[C@@H](O)[C@@H](OC)C(=O)[C@H](C)C[C@H](C)/C=C/C=C/C=C/1C` [everolimus], for which the concentration for half-maximal inhibition (IC50) with FKBP12 was roughly 2 nM.

In the case of `CCN(CC)CCNC(=O)c1c(C)[nH]c(/C=C2\C(=O)Nc3ccc(F)cc32)c1C` [sunitinib], the “%-inhibition of CTK” value in assay [1] (kinase CTK, compound at 1 μM) is listed as 28%. Besides, the “%-inhibition of PLK4” value in assay [2] (kinase PLK4, 1 μM) came to 58%. As to `O=S(=O)(c1cccc2cnccc12)N1CCCNCC1` [fasudil], in assay [3] (setting [6]), the “%-inhibition, ABL(T315I)” value is 1.7%. In the case of `N#CC[C@H](C1CCCC1)n1cc(-c2ncnc3[nH]ccc23)cn1` [ruxolitinib], the “%-inhibition, ABL(T315I)” value in assay [3] (1 µM) came out at 4%. Take `CC(C)(C)c1nc(-c2cccc(NS(=O)(=O)c3c(F)cccc3F)c2F)c(-c2ccnc(N)n2)s1` [dabrafenib]: in assay [4], the “targetedness (standardized logIC50 difference)” value is on record as -4.96. With `CCCS(=O)(=O)Nc1ccc(F)c(C(=O)c2c[nH]c3ncc(-c4ccc(Cl)cc4)cc23)c1F` [vemurafenib], in assay [3] (setting [6]), the “%-inhibition, ABL(T315I)” value was determined as 7%.

Take `C#Cc1cccc(Nc2ncnc3cc(OCCOC)c(OCCOC)cc23)c1` [erlotinib]: the “%-inhibition of CTK” value in assay [1] (1 µM) is listed as 22%. Also, in assay [2] (1 µM), the “%-inhibition of PLK4” value is 9%. With `CNC(=O)c1cc(Oc2ccc(NC(=O)Nc3ccc(Cl)c(C(F)(F)F)c3)c(F)c2)ccn1` [regorafenib], the “%-inhibition, ABL(T315I)” value in assay [3] (setting [6]) was determined as 66%. Turning to `Cc1ccc(Nc2nccc(N(C)c3ccc4c(C)n(C)nc4c3)n2)cc1S(N)(=O)=O` [pazopanib], the “%-inhibition of CTK” value in assay [1] (kinase CTK, compound at 1 μM) is 4.69%. In addition, the “%-inhibition of PAK3” value in assay [5] was found to be 6%. The “%-inhibition of PLK4” value in assay [2] (kinase PLK4, 1 μM) was found to be 72%. With `CO[C@H]1C[C@@H]2CC[C@@H](C)[C@@](O)(O2)C(=O)C(=O)N2CCCC[C@H]2C(=O)O[C@H]([C@H](C)C[C@@H]2CC[C@@H](OC(=O)C(C)(CO)CO)[C@H](OC)C2)CC(=O)[C@H](C)/C=C(\C)[C@@H](O)[C@@H](OC)C(=O)[C@H](C)C[C@H](C)/C=C/C=C/C=C/1C` [temsirolimus], the concentration for half-maximal inhibition (IC50) with FKBP12 is roughly 2 nM.

As to `Cc1cn(-c2cc(NC(=O)c3ccc(C)c(Nc4nccc(-c5cccnc5)n4)c3)cc(C(F)(F)F)c2)cn1` [nilotinib], the “%-inhibition of CTK” value in assay [1] (1 µM) amounted to 7%. Further, in assay [5], the “%-inhibition of PAK3” value was -4%. Moreover, the “%-inhibition of PLK4” value in assay [2] (kinase PLK4, 1 μM) was found to be 21%. In the case of `Cc1nc(Nc2ncc(C(=O)Nc3c(C)cccc3Cl)s2)cc(N2CCN(CCO)CC2)n1` [dasatinib], in assay [5], the “%-inhibition of PAK3” value was -1.28%. As for `CS(=O)(=O)CCNCc1ccc(-c2ccc3ncnc(Nc4ccc(OCc5cccc(F)c5)c(Cl)c4)c3c2)o1` [lapatinib], in assay [1] (kinase CTK, compound at 1 μM), the “%-inhibition of CTK” value was -0.699%. Also, the “%-inhibition, ABL(T315I)” value in assay [3] (setting [6]) came to 9%. For the same compound, the “%-inhibition of PAK3” value in assay [5] was 4.27%. The “%-inhibition of PLK4” value in assay [2] (1 µM) is given as -4.47%.
